In ChEMBL document CHEMBL3301361, “Experimental in vitro DMPK and physicochemical data on a set of publicly disclosed compounds”:
In brackets after ≈: the same amount, converted by molar mass.

Experiments:
physchem [1] = settings: pH 7.4 buffer
in vitro [2] = settings: human, hepatocytes
physchem [3] = settings: octan-1-ol/water, pH 7.4, LogD7.4
in vitro [4] = settings: hepatocytes
in vitro [5] = settings: human, plasma
in vitro [6] = settings: human
in vitro [7] = settings: SD, HW or BN, rat, plasma

| Structure (SMILES) | solubility thermodynamic (physchem [1]) [µM] | hepatocyte CLint (in vitro [2]) [µL/min/1e6 cells] | logD (physchem [3]) | hepatocyte CLint (in vitro [4]) [µL/min/1e6 cells] | fraction unbound at 5 h (in vitro [5]; PPB) | microsomal CLint (in vitro [6]; liver microsomes) [µL/min/mg] | microsomal CLint (in vitro [6]; microsomes) [µL/min/mg] | fraction unbound at 5 h (in vitro [7]) | fraction unbound at 5 h (in vitro [5]) |
| --- | --- | --- | --- | --- | --- | --- | --- | --- | --- |
| CS(=O)(=O)N1CCc2c(-c3cnc(N)nc3)nc(N3CCOCC3)nc21 [IZORLISIB] | 1.7 (≈ 0.642 µg/mL) | < 3 | 1.2 | 5.37 |  |  |  |  |  |
| CCc1cccc2cc(C(O)CNC(C)(C)C)oc12 (stereo not drawn) [BUFURALOL] |  | 8.71 |  | > 150 | 0.0801 |  |  |  |  |
| O=C1COC2(CCN(S(=O)(=O)c3ccc(-c4ccc5cnccc5c4)cc3)CC2)CN1C1CC1 | 2.2 (≈ 1.05 µg/mL) | > 150 | 3.32 | > 150 | 0.0018 | 115 |  |  |  |
| C=CC(=O)Nc1cccc(Oc2nc(Nc3ccc(N4CCN(C)CC4)cc3OC)ncc2Cl)c1 | 1 (≈ 0.495 µg/mL) | 3.31 | 3.9 | 79.4 |  |  |  |  |  |
| CC(CO)(CO)Nc1nc(SCc2cccc(F)c2F)nc2nc(N)sc12 |  | 4.92 | 2.87 | 7 | 0.129 |  |  |  |  |
| O=C(Nc1nc2ccccc2s1)c1ccccc1 |  | 77.6 |  | 64.6 |  |  | > 150 |  |  |
| O=c1[nH]c2ccccc2n1C1CCN(Cc2ccc(-c3nc4ccccc4cc3-c3ccccc3)cc2)CC1 |  | < 3 |  | 35.5 |  |  |  |  |  |
| NC1(c2ccc(-c3ncc4nccn4c3-c3ccccc3)cc2)CCC1 |  | < 3 |  | 16.2 |  |  |  |  |  |
| CCOC(=O)/C=C/[C@H](C[C@@H]1CCNC1=O)NC(=O)[C@@H](CC(=O)[C@@H](NC(=O)c1cc(C)on1)C(C)C)Cc1ccc(F)cc1 |  | 40.7 | 2.8 | > 150 |  | 105 |  |  |  |
| C#Cc1cccc(Nc2ncnc3cc4c(cc23)OCCOCCOCCO4)c1 [ICOTINIB] |  | 3.55 |  | 21.9 |  |  |  |  |  |
| CCS(=O)(=O)CCCC12CCC(c3nnc(-c4ccccc4C(F)(F)F)n3C)(CC1)CC2 [MK-0736] |  | < 3 |  | < 3 |  | < 3 |  |  |  |
| Cc1oncc1C(=O)Nc1ccc(C(F)(F)F)cc1 [LEFLUNOMIDE] | 67.6 (≈ 18.3 µg/mL) | < 3 | 3.9 | 24 |  |  |  |  |  |
| Cn1sc(=O)c2cc(S(N)(=O)=O)ccc21 |  | 27.5 | 0.3 | 17.4 |  |  |  |  |  |
| CO[C@H]1C[C@@H]2CC[C@@H](C)[C@@](O)(O2)C(=O)C(=O)N2CCCC[C@H]2C(=O)O[C@H]([C@H](C)C[C@@H]2CC[C@@H](O)[C@H](OC)C2)CC(=O)[C@H](C)/C=C(\C)[C@@H](O)[C@@H](OC)C(=O)[C@H](C)C[C@H](C)/C=C/C=C/C=C/1C [SIROLIMUS] |  | 50.1 |  | > 150 |  |  |  |  |  |
| NC1(c2ccc(-c3nn4ccnc4cc3-c3ccccc3)cc2)CCC1 |  | 7.76 |  | > 150 |  |  |  |  |  |
| O=C(c1ccc(F)cc1)C1CCN(CCn2c(=O)[nH]c3ccccc3c2=O)CC1 [KETANSERIN] |  | 30.2 |  | 24.6 | 0.0968 |  |  | 0.0064 |  |
| COC(=O)c1ccc(C)c(NS(=O)(=O)c2ccc3c(c2)c(=O)sn3C)c1 |  | > 150 | 2.6 | > 150 |  |  |  |  |  |
| C[C@H](Oc1ccc(Cl)cc1CN1CCN(C(=O)Cc2ccc(Cl)cc2)[C@@H](C)C1)C(=O)O |  | 4.7 |  | < 3 |  | < 3 |  |  | 0.0256 |
| C=CCc1ccccc1OCC(O)CNC(C)C (stereo not drawn) [ALPRENOLOL] |  | 13.2 | 0.99 | > 150 |  |  |  |  |  |
| Cc1c(C)c2c(c(C)c1O)CCC(C)(COc1ccc(CC3SC(=O)NC3=O)cc1)O2 (stereo not drawn) [TROGLITAZONE] |  | 28.2 |  | > 150 | 0.0009 | 49 |  |  |  |
| CCOc1ccc2ccc(=O)oc2c1 [ETHOXYCOUMARIN] | 1000 (≈ 190 µg/mL) | 35.5 | 2.2 | 64.6 |  |  |  |  |  |
| N#Cc1ccc(OC2CCN(C[C@H](O)CNC(=O)c3c[nH]c(=O)c4ccccc34)CC2)cc1Cl |  | < 3 | 2.56 | 15 | 0.197 |  |  |  |  |
| COC(=O)C1=C(C)NC(C)=C(C(=O)OC(C)C)[C@@H]1c1cccc2nonc12 [(R)-ISRADIPINE] |  | 126 | 3.77 | > 150 |  |  |  |  |  |
| O=C(O)COc1ccc(C(F)(F)F)cc1CN1CCN(S(=O)(=O)c2ccccc2)CC1 |  | < 3 |  | < 3 |  | 6.33 |  |  |  |
| NC1(c2ccc(-c3nc4ccccn4c3-c3ccccc3)cc2)CCC1 |  | 18.2 |  | > 150 |  |  |  |  |  |

| Structure (SMILES) | solubility thermodynamic (physchem [1]) [µM] | hepatocyte CLint (in vitro [2]) [µL/min/1e6 cells] | logD (physchem [3]) | hepatocyte CLint (in vitro [4]) [µL/min/1e6 cells] | fraction unbound at 5 h (in vitro [5]; PPB) | microsomal CLint (in vitro [6]; liver microsomes) [µL/min/mg] | microsomal CLint (in vitro [6]; microsomes) [µL/min/mg] | fraction unbound at 5 h (in vitro [7]) | fraction unbound at 5 h (in vitro [5]) |
| --- | --- | --- | --- | --- | --- | --- | --- | --- | --- |
| CCCCNC(=O)NS(=O)(=O)c1ccc(C)cc1 [TOLBUTAMIDE] |  | 6.31 |  | 6.61 |  |  | 6.31 |  |  |
| O=c1c2sccc2n(CC2COc3ccccc3O2)c(=O)n1O (stereo not drawn) | 120 (≈ 39.9 µg/mL) | 135 | 1.44 | 14.8 |  | < 3 |  |  |  |
| O=C1Nc2ccc(Cl)cc2C(c2ccccc2Cl)=NC1O (stereo not drawn) [LORAZEPAM] | 178 (≈ 57.1 µg/mL) | 4.57 |  | 17.4 |  | 7.94 |  |  | 0.072 |
| Cc1cc(F)ccc1-n1nc(C(F)(F)F)cc1-c1ccc2c(c1)NC(=O)CO2 |  | 10.7 |  | 28.2 |  | 14.4 |  | 0.19 |  |
| O=C(Nc1cc(-c2ccnc(Nc3ccccc3)c2)ccn1)C1CCOCC1 |  | 16.2 | 3.7 | > 150 |  | 12.6 |  |  |  |
| Cc1ccc(NC(=O)c2cccc(N(C)S(C)(=O)=O)c2)cc1NC(=O)c1ccc2ncccc2c1 |  | < 3 |  | 72.4 |  |  |  |  |  |
| Cc1ccccc1-n1c(Cn2nc(-c3ccc(O)c(F)c3)c3c(N)ncnc32)nc2cccc(C)c2c1=O | 25.1 (≈ 12.7 µg/mL) | 39.8 | 3.55 | 44.7 | 0.02 |  |  | 0.0313 |  |
| N#CCC(CNc1ncc(C(F)(F)F)cc1Cl)OC(=O)c1c(F)cccc1F (stereo not drawn) |  | > 150 |  | > 150 |  | > 150 |  |  |  |
| O=C(O)C[C@H]1CC[C@H](c2ccc(-c3ccc(Nc4ccc(C(F)(F)F)nc4)cn3)cc2)CC1 | 1.1 (≈ 0.501 µg/mL) | < 3 | 3.8 | 11.5 |  | < 3 |  |  |  |
| C[C@H]1C[C@@H]2[C@H]([C@@H](O)C[C@@]3(C)[C@H]2CC[C@]3(O)C(=O)CO)[C@@]2(C)C=CC(=O)C=C12 [METHYLPREDNISOLONE] |  | 9.12 | 2.12 | > 150 | 0.201 |  |  |  |  |
| C[C@H](CO)Nc1nc(SCc2ccccc2F)nc2nc(N)sc12 |  | 5.75 | 3.12 | 19 |  |  | 8.13 |  |  |
| O=C(N[C@H](Cc1ccc(Cl)cc1)C(=O)N1CCC(Cn2cncn2)(C2CCCCC2)CC1)[C@H]1Cc2ccccc2CN1 |  | 27.5 |  | 40.7 | 0.007 |  |  | 0.0052 |  |
| O=c1[nH]c2c(O)ccc([C@@H](O)CNCCSCCCNCCc3ccccc3)c2s1 | 1150 (≈ 514 µg/mL) | < 3 | 0.12 | 9 |  | 5 |  |  |  |
| CN(C)CCCOc1nn(Cc2ccccc2)c2ccccc12 [BENZYDAMINE] |  | 7.76 | 2.4 | > 150 |  |  | 17.8 |  |  |
| O=C(O[C@H]1C[N+]2(CCCOc3ccccc3)CCC1CC2)C(O)(c1cccs1)c1cccs1 | 339 | 64 |  | 80 |  | 140 |  |  |  |
| CCC(=O)N[C@H]1CC[C@@H](C(=O)N(C)c2ccc(-c3nc4ccccc4o3)cc2)C1 [BI 99179] | 45.7 (≈ 17.9 µg/mL) | 4.57 | 3.4 | 7.59 |  |  | 11 |  |  |
| CCN1CCN(c2ccc(Nc3cc(N(C)C(=O)Nc4c(Cl)c(OC)cc(OC)c4Cl)ncn3)cc2)CC1 [INFIGRATINIB] | 0.5 (≈ 0.28 µg/mL) | 28.8 | 3.7 | 87.1 |  |  |  |  |  |
| Cc1nn(C)c2cc(N3CCN(C(=O)[C@@H]4CCCC[C@H]4C(=O)NC4(C#N)CC4)[C@H](C)C3)ccc12 |  | 7.41 |  | 8.13 |  |  |  |  |  |
| CN1CCN(c2nc3ccccc3cc2Cn2nc(-c3ccc4nc(N)sc4c3)c3c(N)ncnc32)CC1 | 100 (≈ 52.3 µg/mL) | 7.59 | 3.09 | 81 |  | 72 |  |  |  |
| Cc1nn(-c2ccc(F)cc2)c(NS(=O)(=O)c2ccc(C#N)cc2)c1C(=O)N[C@@H](C)C(C)(C)C |  | < 3 | 0.45 | 6 | 0.0437 |  |  | 0.0801 |  |
| O=C(O)CCc1ccc(OCc2cccc(Br)c2)cc1 |  | 129 | 1.67 | > 150 |  | < 3 |  |  |  |
| O=c1[nH]c2c(O)ccc([C@@H](O)CNCCc3cccc(CNCCc4c(Cl)cccc4Cl)c3)c2s1 |  | 5.17 | 3.15 | 78 |  | 63 |  |  |  |
| COc1ccccc1Oc1c(NS(=O)(=O)c2ccc(C(C)(C)C)cc2)nc(-c2ncccn2)nc1OCCO [BOSENTAN] |  | 4.79 | 1.03 |  | 0.013 | 15.1 |  | 0.0122 |  |
| CC1Cc2ccccc2N1NC(=O)c1ccc(Cl)c(S(N)(=O)=O)c1 (stereo not drawn) [INDAPAMIDE] | 151 (≈ 55.4 µg/mL) | 4.9 | 1.83 | 13.2 | 0.204 |  |  |  |  |
